The source of these data is PMC9696832, “Pyrazole-Based Thrombin Inhibitors with a Serine-Trapping Mechanism of Action: Synthesis and Biological Activity” (Pharmaceuticals, 2022).

One series has as its target T1, human α-thrombin (Homo sapiens, UniProt P00734).
T1 construct: human α-thrombin (active) protein; purchased antibodies-online ABIN2127880
Briefly: Serine protease inhibition assay, fluorogenic substrate: thrombin. It counts as biochemical.

The next series deals with T2, human β-FXIIa (Homo sapiens, UniProt P00748).
T2 construct: human β-FXIIa, HFXIIAB; purchased Molecular Innovations HFXIIAB
Put plainly: Serine protease inhibition assay, fluorogenic substrate: FXIIa. It counts as biochemical. To be noted: read-out: Serine Protease IC50 ± SD, FXIIa. As to the method: (§1) Serine protease inhibition assays. The inhibitory activity of synthesized compounds towards thrombin, FXIIa, FXa, FXIa, plasmin, plasma kallikrein, chymotrypsin, and trypsin was measured by quantifying the hydrolysis rate of the fluorogenic substrate as reported previously. Briefly, the activity was tested in buffer (10 mM Tris-Cl, 150 mM NaCl, 10 mM MgCl2·6H2O, 1 mM CaCl2·2H2O, 0.1% w/v BSA, 0.01% v/v Triton-X100, pH = 7.4) utilizing clear flat-bottom, black polystyrene 96 well-plates. […] Dilutions of test-compounds ranging from 2 nM to 32 µM (final concentrations) in DMSO were prepared. The fluorogenic substrate solution was added into the wells followed by the addition of 2 µL of test-compounds solution, and the reaction was triggered by addition of the enzyme solution (final testing volume–152 µL). In case of blank (substrate + buffer) and control (substrate + enzyme) wells, 2 µL of DMSO was added instead of the test-compounds’ solution. Fluorescence intensity was measured with Microplate Reader Mithras LB 940 (Berthold Technologies, excitation at 355 nm, emission at 460 nm) for a period of 1 h (thrombin, FXIIa, FXa, FXIa, and trypsin), 30 min (plasma kallikrein, chymotrypsin), or 15 min (plasmin) with a read every minute. The reactions were performed at 25 °C. To derive IC50 values, endpoint RFU (single fluorescence reading) was used. Sigmoidal curves were prepared in GraphPad Prism software and IC50 values were derived from the fitted curves.

The target of another series is T3, human Factor XIa (Homo sapiens, UniProt P03951).
T3 construct: human Factor XIa, HFXIA; purchased Molecular Innovations HFXIA
Briefly: Serine protease inhibition assay, fluorogenic substrate: FXIa. It counts as biochemical. As to the method:
as §1

For another series, the target named is T4, human Factor Xa (Homo sapiens, UniProt P00742).
T4 construct: human Factor Xa, HFXA; purchased Molecular Innovations HFXA
Put plainly: Serine protease inhibition assay, fluorogenic substrate: FXa. The class given is biochemical. To be noted: for IC50: screened at 5 μM, IC50 in triplicate for actives, [S]0 = 25 µM, read-out: Serine Protease IC50 ± SD, FXa. The protocol: as §1

Another series has as its target T5, human plasmin (Homo sapiens, UniProt P00747).
T5 construct: human plasmin, >95% purity; purchased Innovative Research
Briefly: Serine protease inhibition assay, fluorogenic substrate: plasmin. To be noted: screened at 5 μM; [S]0 = 25 µM; read-out: Serine Protease IC50 ± SD, Plasmin. It counts as biochemical. As to the method:
as §1

Another series concerns the target T6, human plasma kallikrein (Homo sapiens, UniProt P03952).
T6 construct: human plasma kallikrein, >94% purity; purchased Innovative Research
Briefly: Serine protease inhibition assay, fluorogenic substrate: plasma kallikrein. It counts as biochemical. To be noted: screened at 5 μM; IC50 in triplicate for actives; [S]0 = 25 µM; read-out: Serine Protease IC50 ± SD, PK (plasma kallikrein). The protocol: as §1

For a further series, the target named is T7, porcine trypsin (Sus scrofa, UniProt P00761).
T7 construct: porcine trypsin; Merck; purchased Merck
Briefly: Serine protease inhibition assay, fluorogenic substrate: trypsin. The class given is biochemical. Particulars: screened at 5 μM; [S]0 = 25 µM; read-out: Serine Protease IC50 ± SD, Trypsin. As to the method: as §1

The subject of a further series is human chymotrypsin. Put plainly: Serine protease inhibition assay, fluorogenic substrate: chymotrypsin. The class given is biochemical. To be noted: screened at 5 μM; IC50 in triplicate for actives; [S]0 = 25 µM; read-out: Serine Protease IC50 ± SD, Chymotrypsin. The protocol: as §1
Series [1] has as its system human pooled plasma. Briefly: In vitro plasma coagulation assay (aPTT). To be noted: tested at 200 μM. The class given is biochemical. The protocol: (§2) In vitro plasma coagulation assays (aPTT and PT). All measurements were performed using commercially available citrated (3.8%) human pooled plasma (Dunn Labortechnik GmbH, Germany) on a semi-automated coagulometer (Thrombotimer-2, Behnk Elektronik, Germany) according to the manufacturer instructions as previously reported. For aPTT measurement, plasma (100 μL) was placed into the incubation cuvettes of the instrument and incubated for 2 min at 37 °C. Then, test compound solution (10 μL) or solvent (DMSO, 10 μL) was added with a pipette. After 1 min of incubation, 100 μL of prewarmed (37 °C) aPTT reagent (Convergent Technologies, Germany) was added and incubated for additional 2 min. The cuvettes were transferred to a measuring position, the coagulation was initiated by addition of 100 μL of CaCl2 solution (25 mM, prewarmed at 37 °C, Convergent Technologies, Germany) and the clotting time was recorded. For PT assays, plasma (100 μL) was incubated for 2 min at 37 °C. Then, test compound solution (10 μL) or solvent (DMSO, 10 μL) was added with a pipette. After 3 min of incubation, the cuvettes were transferred to a measuring position, the coagulation was initiated by addition of 100 μL of PT assay reagent already containing CaCl2 (prewarmed at 37 °C, Biolabo, France) and the clotting time was recorded.

In series [2] the test system is human pooled plasma. Put plainly: In vitro plasma coagulation assay (PT). It counts as biochemical. To be noted: tested at 200 μM. The protocol:
as §2

Where [3] appears, read: read-out: Serine Protease IC50 ± SD, Thrombin.
[4] abbreviates: screened at 5 μM, IC50 in triplicate for actives, [S]0 = 25 µM, read-out: Serine Protease IC50 ± SD, FXIa.
Setting [5] is: [S]0 = 25 µM Boc-Val-Pro-Arg-AMC, Km = 18 ± 1 µM, triplicate, 25 °C, read-out: Serine Protease IC50 ± SD, Thrombin.

Where two headings read alike, the source gives them in different places.

T4 sequence (P00742 235-488 limits assumed): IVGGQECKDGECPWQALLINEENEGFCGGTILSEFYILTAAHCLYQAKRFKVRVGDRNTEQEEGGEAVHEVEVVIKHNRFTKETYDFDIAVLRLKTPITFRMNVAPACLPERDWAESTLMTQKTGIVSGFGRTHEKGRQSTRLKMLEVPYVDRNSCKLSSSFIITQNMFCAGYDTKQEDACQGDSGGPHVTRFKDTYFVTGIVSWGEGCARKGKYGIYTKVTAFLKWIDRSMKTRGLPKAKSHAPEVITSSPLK
T4 sequence (P00742 41-179 limits assumed): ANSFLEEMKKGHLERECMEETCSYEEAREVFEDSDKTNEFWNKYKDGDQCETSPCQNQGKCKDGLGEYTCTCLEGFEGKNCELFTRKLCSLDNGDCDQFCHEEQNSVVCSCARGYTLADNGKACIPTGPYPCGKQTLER
T2 sequence (P00748 373-615 limits assumed, other chains not shown): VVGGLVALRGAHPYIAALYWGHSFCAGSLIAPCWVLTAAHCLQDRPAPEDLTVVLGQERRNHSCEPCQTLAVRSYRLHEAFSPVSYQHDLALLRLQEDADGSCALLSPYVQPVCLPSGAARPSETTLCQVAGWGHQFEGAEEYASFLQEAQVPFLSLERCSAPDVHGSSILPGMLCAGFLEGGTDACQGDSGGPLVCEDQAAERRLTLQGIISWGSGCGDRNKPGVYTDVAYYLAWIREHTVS
T6 sequence (P03952 391-638 limits assumed): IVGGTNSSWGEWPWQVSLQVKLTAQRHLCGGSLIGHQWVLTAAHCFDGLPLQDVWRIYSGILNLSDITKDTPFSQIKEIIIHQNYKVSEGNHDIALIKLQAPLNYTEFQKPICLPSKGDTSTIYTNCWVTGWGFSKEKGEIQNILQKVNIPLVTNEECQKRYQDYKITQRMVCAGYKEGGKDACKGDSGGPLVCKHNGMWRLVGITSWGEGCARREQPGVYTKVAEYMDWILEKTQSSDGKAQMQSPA
T6 sequence (P03952 20-390 limits assumed): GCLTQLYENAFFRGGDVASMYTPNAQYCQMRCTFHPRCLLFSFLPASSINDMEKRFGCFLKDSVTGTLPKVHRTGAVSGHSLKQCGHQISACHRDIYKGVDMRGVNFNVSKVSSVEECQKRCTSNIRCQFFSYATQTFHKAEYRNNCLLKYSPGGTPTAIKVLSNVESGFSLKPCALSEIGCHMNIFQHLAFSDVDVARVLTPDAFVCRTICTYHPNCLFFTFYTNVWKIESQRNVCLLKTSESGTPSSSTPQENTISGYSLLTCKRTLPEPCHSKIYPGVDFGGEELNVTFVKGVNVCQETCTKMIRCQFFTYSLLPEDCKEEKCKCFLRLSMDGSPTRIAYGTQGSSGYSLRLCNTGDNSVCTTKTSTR
T7 sequence (P00761 9-231): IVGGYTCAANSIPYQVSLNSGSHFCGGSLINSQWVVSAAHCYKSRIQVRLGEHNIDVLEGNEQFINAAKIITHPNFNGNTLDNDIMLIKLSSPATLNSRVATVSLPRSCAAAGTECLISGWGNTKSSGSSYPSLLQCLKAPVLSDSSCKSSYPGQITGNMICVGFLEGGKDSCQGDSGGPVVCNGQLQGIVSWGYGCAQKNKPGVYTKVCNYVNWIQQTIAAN
T3 sequence (P03951 388-625 limits assumed): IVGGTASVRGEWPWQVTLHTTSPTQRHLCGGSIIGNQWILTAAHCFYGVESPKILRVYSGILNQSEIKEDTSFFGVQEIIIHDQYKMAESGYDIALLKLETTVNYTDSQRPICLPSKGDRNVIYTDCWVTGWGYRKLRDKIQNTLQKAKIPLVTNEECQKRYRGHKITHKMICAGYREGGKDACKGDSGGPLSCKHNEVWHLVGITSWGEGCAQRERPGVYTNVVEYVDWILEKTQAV
T3 sequence (P03951 19-387 limits assumed): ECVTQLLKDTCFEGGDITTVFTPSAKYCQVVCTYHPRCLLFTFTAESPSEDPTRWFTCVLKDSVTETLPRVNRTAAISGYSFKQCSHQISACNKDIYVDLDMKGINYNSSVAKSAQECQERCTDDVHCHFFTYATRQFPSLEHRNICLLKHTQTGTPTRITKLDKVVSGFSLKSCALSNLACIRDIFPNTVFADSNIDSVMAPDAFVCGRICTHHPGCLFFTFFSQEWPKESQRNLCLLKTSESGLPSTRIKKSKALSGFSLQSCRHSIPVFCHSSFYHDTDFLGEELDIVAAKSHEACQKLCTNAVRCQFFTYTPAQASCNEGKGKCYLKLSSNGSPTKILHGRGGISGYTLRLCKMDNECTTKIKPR
T5 sequence (P00747 581-810 limits assumed): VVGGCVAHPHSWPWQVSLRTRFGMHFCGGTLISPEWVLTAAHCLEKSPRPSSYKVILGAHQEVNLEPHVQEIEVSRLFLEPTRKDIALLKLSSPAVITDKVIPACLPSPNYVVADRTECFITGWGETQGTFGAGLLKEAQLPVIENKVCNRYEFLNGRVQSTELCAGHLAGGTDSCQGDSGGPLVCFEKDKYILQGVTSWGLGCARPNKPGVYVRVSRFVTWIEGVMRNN
T5 sequence (P00747 97-580 limits assumed): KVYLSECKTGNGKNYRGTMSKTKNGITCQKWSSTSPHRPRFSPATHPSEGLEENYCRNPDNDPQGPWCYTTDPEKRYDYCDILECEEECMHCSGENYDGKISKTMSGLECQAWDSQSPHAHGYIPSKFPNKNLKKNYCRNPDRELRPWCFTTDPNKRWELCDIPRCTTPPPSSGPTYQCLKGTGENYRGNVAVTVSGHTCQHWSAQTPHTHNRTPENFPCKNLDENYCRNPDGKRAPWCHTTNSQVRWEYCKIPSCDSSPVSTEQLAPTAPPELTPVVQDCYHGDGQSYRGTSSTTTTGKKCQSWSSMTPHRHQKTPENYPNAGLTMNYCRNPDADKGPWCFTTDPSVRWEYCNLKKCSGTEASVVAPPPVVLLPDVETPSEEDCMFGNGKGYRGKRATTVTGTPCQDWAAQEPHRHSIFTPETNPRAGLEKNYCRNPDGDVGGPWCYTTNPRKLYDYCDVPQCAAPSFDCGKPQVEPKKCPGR
Procedure for human α-thrombin: Serine protease inhibition assays. The inhibitory activity of synthesized compounds towards thrombin, FXIIa, FXa, FXIa, plasmin, plasma kallikrein, chymotrypsin, and trypsin was measured by quantifying the hydrolysis rate of the fluorogenic substrate as reported previously [14, 17]. Briefly, the activity was tested in buffer (10 mM Tris-Cl, 150 mM NaCl, 10 mM MgCl2·6H2O, 1 mM CaCl2·2H2O, 0.1% w/v BSA, 0.01% v/v Triton-X100, pH = 7.4) utilizing clear flat-bottom, black polystyrene 96 well-plates. […] The fluorogenic substrate solution was added into the wells followed by the addition of 2 µL of test-compounds solution, and the reaction was triggered by addition of the enzyme solution (final testing volume–152 µL). In case of blank (substrate + buffer) and control (substrate + enzyme) wells, 2 µL of DMSO was added instead of the test-compounds’ solution. […] To derive IC50 values, endpoint RFU (single fluorescence reading) was used. Sigmoidal curves were prepared in GraphPad Prism software and IC50 values were derived from the fitted curves [14, 17].

Consider `O=C(c1ccccc1)n1nc(-c2ccccc2)c(F)c1NCc1ccc(Cl)s1` [34b, (5-(((5-chlorothiophen-2-yl)methyl)amino)-4-fluoro-3-phenyl-1H-pyrazol-1-yl)(phenyl)methanone], for which the IC50 at human α-thrombin (setting [3]) was 0.071 ± 0.003 µM; at human β-FXIIa it was greater than 5 µM; at human Factor XIa (setting [4]), greater than 5 µM; at human Factor Xa, greater than 5 µM; on human plasmin, greater than 5 µM; at human plasma kallikrein it was greater than 5 µM. Besides, the IC50 on porcine trypsin is greater than 5 µM; in the series on human chymotrypsin it was 1.15 ± 0.11 µM. Besides, the “aPTT, fold increase compared to DMSO” value in the series with human pooled plasma [1] is listed as 1.0 fold. Besides, the “PT, fold increase compared to DMSO” value in the series with human pooled plasma [2] worked out at 1.1 fold.
For the compound `CC(C)(C)C(=O)n1nc(-c2ccccc2)c(F)c1NCc1ccc(Cl)s1` [34a, 1-(5-(((5-chlorothiophen-2-yl)methyl)amino)-4-fluoro-3-phenyl-1H-pyrazol-1-yl)-2,2-dimethylpropan-1-one], the IC50 was 0.08 ± 0.002 µM at human α-thrombin (setting [5]); greater than 5 µM at human β-FXIIa; greater than 5 µM at human Factor XIa (setting [4]); greater than 5 µM on human Factor Xa; greater than 5 µM on human plasmin; greater than 5 µM on human plasma kallikrein. In addition, the IC50 at porcine trypsin and in the series on human chymotrypsin was greater than 5 µM each time. Besides, in the series with human pooled plasma [1], the “aPTT, fold increase compared to DMSO” value was 1.0 fold. Also, the “PT, fold increase compared to DMSO” value in the series on human pooled plasma [2] is reported as 1.1 fold.
Regarding `O=c1c2ccccc2n(Cc2ccccc2)c2cc(-c3cccnc3)nn12` [10a, 4-benzyl-2-(pyridin-3-yl)pyrazolo[5,1b]quinazolin-9(4H)-one], the melting point came out at 266 °C. For the same compound, on human α-thrombin (setting [3]), the IC50 was greater than 5 µM. Besides, the half-inhibitory concentration (IC50) on human β-FXIIa was greater than 5 µM.
On to `O=c1c2ccccc2n(Cc2cccc3ccccc23)c2cc(-c3cccnc3)nn12` [10c, 4-[(naphthalen-1-yl)methyl]-2-(pyridin-3-yl)pyrazolo[5,1-b]quinazolin-9(4H)-one], for which the melting point was determined as 252 °C. The IC50 at human α-thrombin (setting [3]) is greater than 5 µM. Besides, the IC50 at human β-FXIIa is greater than 5 µM.
`COc1ccc(CNc2cc(-c3cccnc3)nn2C(=O)c2ccccc2I)cc1` [9b, (2-iodophenyl){5-[(4-methoxybenzyl)amino]-3-(pyridin-3-yl)-1H-pyrazol-1-yl}methanone] returned a melting point of 136 to 137 °C. On human α-thrombin (setting [3]), the IC50 is greater than 5 µM. Further, the IC50 at human β-FXIIa was greater than 5 µM.
Compound `CC(C)(C)C(=O)n1nc(-c2cccnc2)cc1NCc1cccc2ccccc12` [24c, 2,2-dimethyl-1-(5-{[(naphthalen-1-yl)methyl]amino}-3-(pyridin-3-yl)-1H-pyrazol-1-yl)propan-1-one] showed a melting point of 130 to 131 °C. Further, the half-inhibitory concentration (IC50) at human α-thrombin (setting [5]) is greater than 5 µM. Besides, at human β-FXIIa, the IC50 was greater than 5 µM.
As to `COc1ccc(Cn2c3ccccc3c(=O)n3nc(-c4cccnc4)cc23)cc1` [10b, 4-(4-methoxybenzyl)-2-(pyridin-3-yl)pyrazolo[5,1-b]quinazolin-9(4H)-one], the melting point was found to be 245 °C. In addition, at human α-thrombin (setting [3]), the IC50 was greater than 5 µM. Also, the IC50 on human β-FXIIa is greater than 5 µM.
As for `O=C(c1ccccc1I)n1nc(-c2cccnc2)cc1NCc1cccc2ccccc12` [9c, (2-iodophenyl)(5-{[(naphthalen-1-yl)methyl]amino}-3-(pyridin-3-yl)-1H-pyrazol-1-yl)methanone], the melting point was found to be 137 °C. Further, at human α-thrombin (setting [3]), the IC50 is greater than 5 µM. Further, the IC50 at human β-FXIIa is greater than 5 µM.
In the case of `O=c1c2ccccc2n(Cc2ccc(Cl)s2)c2cc(C3CCCCC3)nn12` [10i, 4-[(5-chlorothiophen-2-yl)methyl]-2-cyclohexylpyrazolo[5,1-b]quinazolin-9(4H)-one], the melting point amounted to 210 °C. Also, at human α-thrombin (setting [3]), the IC50 is greater than 5 µM. In addition, the IC50 at human β-FXIIa is greater than 5 µM.
Take `O=C(c1ccccc1)n1nc(-c2cccnc2)cc1NCc1ccc(Cl)s1` [compound 25, (5-{[(5-chlorothiophen-2-yl)methyl]amino}-3-(pyridin-3-yl)-1H-pyrazol-1-yl)(phenyl)methanone]: the half-inhibitory concentration (IC50) on human α-thrombin (setting [5]) was 0.018 ± 0.001 µM; on human β-FXIIa, greater than 5 µM; at human Factor XIa (read-out: FXIa IC50) it was 1 µM; on human Factor XIa (setting [4]), 1.02 ± 0.09 µM; at human Factor Xa, roughly 5 µM; at human plasmin, greater than 5 µM. For the same compound, the half-maximal inhibitory concentration (IC50) at human plasma kallikrein was 0.639 ± 0.156 µM; at porcine trypsin, greater than 5 µM; in the series with human chymotrypsin it was 0.242 ± 0.013 µM. For the same compound, at human Factor Xa (at 5 μM), the inhibition at 5 µM is 54%. In addition, the “aPTT, fold increase compared to DMSO” value in the series on human pooled plasma [1] is recorded as 1.1 fold. Moreover, the “PT, fold increase compared to DMSO” value with human pooled plasma [2] is 1.2 fold.
In turn, `O=c1c2ccccc2n(Cc2ccco2)c2cc(-c3cccnc3)nn12` [10d, 4-[(furan-2-yl)methyl]-2-(pyridin-3-yl)pyrazolo[5,1-b]quinazolin-9(4H)-one] showed a melting point of 272 °C. Further, the IC50 at human α-thrombin (setting [3]) is greater than 5 µM. The IC50 at human β-FXIIa was greater than 5 µM.
On to `O=C(c1ccccc1I)n1nc(-c2ccccc2)cc1NCc1ccc(Cl)s1` [9g, (5-{[(5-chlorothiophen-2-yl)methyl]amino}-3-phenyl-1H-pyrazol-1-yl)(2-iodophenyl)methanone], for which the melting point lay within 137 to 138 °C. On human α-thrombin (setting [5]), the IC50 is 1.31 ± 0.032 µM. Further, the IC50 at human α-thrombin (read-out: thrombin IC50) turned out to be 1.3 µM. Moreover, the half-maximal inhibitory concentration (IC50) at human β-FXIIa was greater than 5 µM.

The IC50 is the concentration needed to halve the response being measured. As a reminder, the melting point is the temperature of the solid-liquid transition. As usually defined, the inhibition is how much of the control response was suppressed. Higher therefore signals a response far below the control.
